Source: patent publication US20140248635A1, “ALPHA-TUBULIN […]” (University of Georgia Research Foundation, Inc., priority 2010, published 2014)

Tests used:
GST-MmMEC-17 = experiment: In vitro tubulin acetyltransferase assay: effect of added agents on MEC-17 activity; format: biochemical, murine; conditions: purified MEC17-KO tubulin or axonemes, acetyl-CoA
Text: To disrupt the MEC-17 gene in Tetrahymena, we used homologous DNA recombination with a fragment carrying the neo4 marker that replaced the coding region. MEC-17 was overexpressed in Tetrahymena using the MTT1 cadmium-dependent promoter. In C. elegans, MEC-12-K40, MEC-12-Q40, and MEC-12-R40 transgenes were introduced into a single site on chromosome II in the EG4322 strain. Animals homozygous for a MEC-12 transgene and homozygous for the mec-12(e1607) allele were obtained by standard crosses. All touch sensation assays in C. elegans were done using blind scoring. To deplete human MEC-17 (C6Orf134) mRNA in Hela cells, we introduced MEC-17-specific siRNAs (ON-TARGETplus pool, Dharmacon) using Oligofectamine (Invitrogen). To knockdown mec17 expression in zebrafish, MOs designed to target the MEC-17 mRNA (Open Biosystems) were injected into early embryos. ATG-MEC17 MO targets the translation initiation site of mec17 mRNA. SP-MEC17 MO targets the exon3/intron3-4 splice junction, and is expected to result in an aberrant splicing isoform of exon2 to exon 4, producing a frameshift mutation and associated protein truncation. As a negative control, we injected MO with a random sequence (oligo-25N, Gene Tools) or a 5 bp mismatch to the ATG-MEC17 MO. Live embryos were scored for phenotypes at 48 hpf. […] The reaction was detected by western blotting using anti-acetyl-K antibodies. […]

[1] = test system: MEC-17-KO Tetrahymena cells; experiment: Response of Tetrahymena strains to microtubule drugs (growth, axonemes); format: cell-based; conditions: MEC-17-KO vs wild type
Procedure: Cells were suspended at 10^5 cell/ml in SPP medium and incubated with the drug for 22 hr at 30° C. and the cell density was determined.

HDAC6 = molecular target: T1, HDAC6 (Homo sapiens, UniProt Q9UBN7); conditions: cited from earlier work
T1 sequence (Q9UBN7 1-1215): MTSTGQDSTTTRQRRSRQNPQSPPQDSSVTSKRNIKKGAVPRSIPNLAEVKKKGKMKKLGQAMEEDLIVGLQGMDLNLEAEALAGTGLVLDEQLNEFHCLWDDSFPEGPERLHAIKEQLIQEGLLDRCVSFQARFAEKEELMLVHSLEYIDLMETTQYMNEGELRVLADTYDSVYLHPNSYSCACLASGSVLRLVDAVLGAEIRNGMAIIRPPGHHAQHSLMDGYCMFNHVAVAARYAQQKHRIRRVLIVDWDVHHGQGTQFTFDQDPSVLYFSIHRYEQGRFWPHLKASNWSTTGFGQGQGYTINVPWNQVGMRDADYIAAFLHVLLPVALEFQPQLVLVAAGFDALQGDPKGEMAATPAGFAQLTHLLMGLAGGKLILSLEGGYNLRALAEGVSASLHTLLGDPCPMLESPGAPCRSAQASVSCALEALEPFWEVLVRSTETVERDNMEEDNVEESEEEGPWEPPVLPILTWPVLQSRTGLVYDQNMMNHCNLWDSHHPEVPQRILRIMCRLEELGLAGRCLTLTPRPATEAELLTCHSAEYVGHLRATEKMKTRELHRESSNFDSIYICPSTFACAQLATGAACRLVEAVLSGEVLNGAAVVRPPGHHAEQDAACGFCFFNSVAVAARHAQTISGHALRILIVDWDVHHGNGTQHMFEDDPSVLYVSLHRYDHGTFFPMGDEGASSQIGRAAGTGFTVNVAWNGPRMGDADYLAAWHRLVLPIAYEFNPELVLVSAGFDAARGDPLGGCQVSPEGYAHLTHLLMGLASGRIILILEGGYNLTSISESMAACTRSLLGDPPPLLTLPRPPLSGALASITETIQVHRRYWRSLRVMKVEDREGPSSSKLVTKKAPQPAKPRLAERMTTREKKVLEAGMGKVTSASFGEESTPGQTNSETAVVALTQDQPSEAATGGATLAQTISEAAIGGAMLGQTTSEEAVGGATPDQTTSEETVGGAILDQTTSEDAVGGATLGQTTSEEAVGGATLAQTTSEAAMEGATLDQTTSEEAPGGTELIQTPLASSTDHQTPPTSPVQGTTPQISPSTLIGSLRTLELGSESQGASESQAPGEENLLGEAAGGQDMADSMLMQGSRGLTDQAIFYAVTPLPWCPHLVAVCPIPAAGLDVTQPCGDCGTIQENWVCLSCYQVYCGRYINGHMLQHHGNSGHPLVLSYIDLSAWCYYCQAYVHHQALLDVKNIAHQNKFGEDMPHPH

zebrafish embryos = experiment: Phenotypes of live zebrafish embryos at 48 hpf after morpholino injection; format: in vivo
Text: To disrupt the MEC-17 gene in Tetrahymena, we used homologous DNA recombination with a fragment carrying the neo4 marker that replaced the coding region. MEC-17 was overexpressed in Tetrahymena using the MTT1 cadmium-dependent promoter. In C. elegans, MEC-12-K40, MEC-12-Q40, and MEC-12-R40 transgenes were introduced into a single site on chromosome II in the EG4322 strain. Animals homozygous for a MEC-12 transgene and homozygous for the mec-12(e1607) allele were obtained by standard crosses. All touch sensation assays in C. elegans were done using blind scoring. To deplete human MEC-17 (C6Orf134) mRNA in Hela cells, we introduced MEC-17-specific siRNAs (ON-TARGETplus pool, Dharmacon) using Oligofectamine (Invitrogen). To knockdown mec17 expression in zebrafish, MOs designed to target the MEC-17 mRNA (Open Biosystems) were injected into early embryos. ATG-MEC17 MO targets the translation initiation site of mec17 mRNA. SP-MEC17 MO targets the exon3/intron3-4 splice junction, and is expected to result in an aberrant splicing isoform of exon2 to exon 4, producing a frameshift mutation and associated protein truncation. As a negative control, we injected MO with a random sequence (oligo-25N, Gene Tools) or a 5 bp mismatch to the ATG-MEC17 MO. Live embryos were scored for phenotypes at 48 hpf. To produce a recombinant MEC-17 protein, the cDNA sequence of the murine MEC-17 (BF135007, Open Biosystems) was subcloned into pGEX-3× plasmid (GE Healthcare), expressed in BL21 E. coli cells as a GST fusion and purified using GST-Bind kit (Novagen). The in vitro acetylation assays were performed in 50 mM Tris-HCl pH 8.0, […], 0.1 mM EDTA, with purified Tetrahymena MEC-17-KO axonemes or tubulin (purified using DEAE chromatography), recombinant GST-MmMEC-17 enzyme and 10 μM acetyl-CoA. The reaction was detected by western blotting using anti-acetyl-K antibodies.
ATG-MEC17 targets the translation initiation site of MEC-17 mRNA. SP-MEC17 MO targets the exon3/intron3-4 splice junction, and is expected to result in an aberrantly spliced isoform in which exon2 is joined to exon 4. The predicted transcript contains a frameshift mutation and encodes a nonsense protein. As a negative control we injected MO with a random sequence (oligo-25N, Gene Tools) or a 5 bp mismatch to the ATG-MEC17 MO (5′-CATTgAcGTCcTAAGGcAAATgCAT-3′; SEQ ID NO:9). Live embryos were scored for phenotypes at 48 hpf, or fixed processed for immunofluorescence as described (Wloga et al., 2009 Dev Cell 16:867-876). The antibodies were used in the following concentrations: 6-11 B-1 mAb (1:1000), Znp-1 anti-synaptotagmin 1 mAb (1:100). After incubation with secondary antibodies (Zymed) overnight at 4° C. (1:500) embryos were mounted in 100 mg/ml of DABCO (Sigma-Aldrich) in PBS and viewed in a Leica TCS SP confocal microscope. Live zebrafish morphants shown in videos S1-S3 were recorded using on the Zeiss Stemi SV11 Apo microscope and a SPOT FLEX camera (Diagnostic Instruments Inc.) at 12 frames per second.

mec17 mRNA = experiment: RT-PCR of mec17 mRNA in morpholino-injected embryos; format: in vivo, zebrafish; conditions: RT-PCR exon 1 to exon 5
Procedure: Total cDNA was made using randomly-primed mRNA isolated from either control (WT) or embryos injected with 5 bp mismatch MO (MIS), ATG-MO (ATG), or splice-site MO (SP), and amplified using either primers corresponding to the coding sequence of the β-actin gene (top panel) or primers that correspond to the sequence of mec17 between exon 1 and exon 5 (bottom panel). As controls, amplifications were performed on samples that lacked reverse transcriptase (−RT). Note that the β-actin gene primers gave a robust product of the expected size (100 bp) for all +RT samples (top).
For RT-PCR, mRNA was isolated from 70 embryos 24 hpf using TRIzol reagent (Invitrogen, Carslbad, Calif.), and total cDNA was synthesized using iScript cDNA synthesis kit (Bio-Rad Laboratories, Hercules, Calif.). The sequences of primers used to amplify the mec17 cDNA were: MEC17EX1F 5′-[…]-3′ (SEQ ID NO:10) and MEC17EX5R2 5′-[…]-3′ (SEQ ID NO:11). The forward primer binds to exon 1 and the reverse primer binds to exon 5 (the splice blocking morpholino binds to the junction between exon 3 and the intron 3-4). For the control amplification of β-actin cDNA, we used the following primers: 5′-[…]-3′ (SEQ ID NO:12) and 5′-[…]-3′ (SEQ ID NO:13).

For `Nc1nc2c(ncn2[C@@H]2O[C@H](COP(=O)(O)OP(=O)(O)OP(=O)(O)O)[C@@H](O)[C@H]2O)c(=O)[nH]1` [GTP], the “effect on MEC-17 acetylation activity” value (GST-MmMEC-17) was “stimulated”.
For `CC(=O)O[C@H]1C(=O)[C@@]2(C)[C@H]([C@H](OC(=O)c3ccccc3)[C@]3(O)C[C@H](OC(=O)[C@H](O)[C@@H](NC(=O)c4ccccc4)c4ccccc4)C(C)=C1C3(C)C)[C@]1(OC(C)=O)CO[C@@H]1C[C@@H]2O` [Paclitaxel, paclitaxel, reference compound], the “growth of MEC-17-KO cells in medium with drug, compared with wild type” value [1] was “grew faster than wild-type cells” and the “effect on MEC-17 acetylation activity” value (GST-MmMEC-17) was “stimulated”.
For `O=C(CCCCCCC(=O)Nc1ccc([C@H]2O[C@@H](CSc3nc(-c4ccccc4)c(-c4ccccc4)o3)C[C@@H](c3ccc(CO)cc3)O2)cc1)NO` [tubacin], the “inhibition of HDAC6” value (HDAC6) is given as “a specific inhibitor”.
For “ATG MIS MO: negative control MO, 5 bp mismatch to the ATG-MEC17 MO, 5′-CATTgAcGTCcTAAGGcAAATgCAT-3′ (SEQ ID NO:9) (CATTGACGTCCTAAGGCAAATGCAT; all phosphorodiamidate morpholino (PMO)) [reference compound]”, the “Edema of the heart (frequency of phenotype)” value (“Edema of the heart” for short) (zebrafish embryos; Table 2, 1 ng MO, 48 hpf) was 3.8%, the “Hydrocephaly (frequency of phenotype)” value (zebrafish embryos; Table 2, 1 ng MO, 48 hpf) was 0% and the “Lethality (frequency of phenotype)” value (zebrafish embryos; Table 2, 1 ng MO, 48 hpf) was 2.5%. The “Mobility: reduced mobility” value (zebrafish embryos; Table 2, 1 ng MO, 48 hpf) was 2.5% reduced mobility, the “Short body axis (frequency of phenotype)” value (zebrafish embryos; Table 2, 1 ng MO, 48 hpf) was 5.1% and the “Small head/eyes: small eyes” value (zebrafish embryos; Table 2, 1 ng MO, 48 hpf) was 1.2% small eyes. For the same compound, the “Small head/eyes: small heads” value (zebrafish embryos; Table 2, 1 ng MO, 48 hpf) was 6.4% small heads and the “gross embryo phenotype / developmental defects” value (zebrafish embryos; injected embryos) was “appeared normal”.
In the case of “MEC-17 ATG MO: morpholino 5′-CATTCAGGTCGTAAGGGAAATCCAT-3′ (SEQ ID NO:7); targets the translation initiation site of MEC-17 mRNA (all phosphorodiamidate morpholino (PMO))”, the “Edema of the heart” value (zebrafish embryos; Table 1, 1 ng MO, 48 hpf) is reported as 15.4%, the “Hydrocephaly (frequency of phenotype)” value (zebrafish embryos; Table 1, 1 ng MO, 48 hpf) is reported as 15% and the “Lethality (frequency of phenotype)” value (zebrafish embryos; Table 1, 1 ng MO, 48 hpf) is reported as 7%. For the same compound, the “Paralyzed (frequency of phenotype)” value (zebrafish embryos; Table 1, 1 ng MO, 48 hpf) was 15.4%, the “Reduced mobility (frequency of phenotype)” value (zebrafish embryos; Table 1, 1 ng MO, 48 hpf) was 41.6% and the “Short body axis (frequency of phenotype)” value (zebrafish embryos; Table 1, 1 ng MO, 48 hpf) was 35.7%. The “Small head/eyes (frequency of phenotype)” value (zebrafish embryos; Table 1, 1 ng MO, 48 hpf) was 28.5%, the “Edema of the heart” value (zebrafish embryos; Table 2, 1 ng MO, 48 hpf) was 7.9% and the “Hydrocephaly (frequency of phenotype)” value (zebrafish embryos; Table 2, 1 ng MO, 48 hpf) was 13.8%. For the same compound, the “Lethality (frequency of phenotype)” value (zebrafish embryos; Table 2, 1 ng MO, 48 hpf) was 3.7%, the “Mobility: paralyzed” value (zebrafish embryos; Table 2, 1 ng MO, 48 hpf) was 10.1% paralyzed and the “Mobility: reduced mobility” value (zebrafish embryos; Table 2, 1 ng MO, 48 hpf) was 17.5% reduced mobility. The “Short body axis (frequency of phenotype)” value (zebrafish embryos; Table 2, 1 ng MO, 48 hpf) was 27.1%, the “Small head/eyes: small eyes” value (zebrafish embryos; Table 2, 1 ng MO, 48 hpf) was 74.4% small eyes and the “Small head/eyes: small heads” value (zebrafish embryos; Table 2, 1 ng MO, 48 hpf) was 79.2% small heads.
In the case of “MEC-17 SP MP: morpholino 5′-AGAGAAAGCTATTTTACCCGTTCTG-3′ (SEQ ID NO:8); targets the exon3/intron3-4 splice junction of mec17 (all phosphorodiamidate morpholino (PMO))”, the “Edema of the heart” value (zebrafish embryos; Table 1, 1 ng MO, 48 hpf) is reported as 13.2%, the “Hydrocephaly (frequency of phenotype)” value (zebrafish embryos; Table 1, 1 ng MO, 48 hpf) is reported as 33% and the “Lethality (frequency of phenotype)” value (zebrafish embryos; Table 1, 1 ng MO, 48 hpf) is reported as 28%. For the same compound, the “Paralyzed (frequency of phenotype)” value (zebrafish embryos; Table 1, 1 ng MO, 48 hpf) was 15%, the “Reduced mobility (frequency of phenotype)” value (zebrafish embryos; Table 1, 1 ng MO, 48 hpf) was 23.5% and the “Short body axis (frequency of phenotype)” value (zebrafish embryos; Table 1, 1 ng MO, 48 hpf) was 41.5%. The “Small head/eyes (frequency of phenotype)” value (zebrafish embryos; Table 1, 1 ng MO, 48 hpf) was 47.1% and the “levels of mec17 mRNA” value (mec17 mRNA) was “severe reduction”.
